From ChEMBL document CHEMBL4038299, “Nitroimidazoles: Molecular Fireworks That Combat a Broad Spectrum of Infectious Diseases” (J Med Chem, 2017)
In brackets after ≈: the same amount, converted by molar mass.

Tests used:
Leishmania donovani [1] = assay: Antileishmanial activity against Leishmania donovani LV9 amastigotes infected in BALB/c mouse assessed as reduction in parasite burden at 200 mg/kg, po administered qd for 5 days; type: functional; settings: 120 h
Leishmania donovani [2] = assay: Antileishmanial activity against Leishmania donovani HU3 infected in po dosed BALB/c mouse administered for 5 consecutive days; type: functional
Leishmania donovani [3] = assay: Antileishmanial activity against Leishmania donovani LV9 amastigotes infected in po dosed BALB/c mouse assessed as reduction in parasite burden dosed on day 7 post-infection administered bid for 5 to 10 days; type: functional
Leishmania donovani [4] = assay: Antileishmanial activity against Leishmania donovani LV9 amastigotes infected in mouse peritoneal macrophages after 72 hrs; type: functional; settings: LV9, 72 h
Bacteroides fragilis = assay: Antibacterial activity against Bacteroides fragilis ATCC 23745 after 24 hrs; type: functional; settings: ATCC 23745, 24 h
Giardia intestinalis [5] = assay: In vivo antiparasitic activity against Giardia lamblia infected in human assessed as median efficacy at 2 g administered in adults as single dose; type: functional, Giardia duodenalis
Giardia intestinalis [6] = assay: In vivo antiparasitic activity against Giardia lamblia infected in human assessed as median efficacy at 30 mg/kg administered in children as single dose; type: functional, Giardia duodenalis
Trypanosoma cruzi [7] = assay: Antiparasitic activity against Trypanosoma cruzi infected in human assessed as cure rate under acute condition; type: functional
Trypanosoma cruzi [8] = assay: Antiparasitic activity against Trypanosoma cruzi infected in human assessed as cure rate under chronic condition; type: functional
Helicobacter pylori [9] = assay: Antibacterial activity against Helicobacter pylori after 72 hrs by E-test; type: functional
Giardia intestinalis [10] = assay: In vivo antiparasitic activity against Giardia lamblia infected in human at 250 mg administered 2 to 3 times per day daily for 5 to 10 days; type: functional, Giardia duodenalis
[11] = Drug excretion in po dosed human feces; type: ADME, organism-based; settings: in vivo
Helicobacter pylori [12] = assay: Antibacterial activity against susceptible Helicobacter pylori; type: functional
Helicobacter pylori [13] = assay: Antibacterial activity against resistant Helicobacter pylori; type: functional
[14] = Drug excretion in po dosed human watery feces; type: ADME, organism-based; settings: in vivo
Clostridioides difficile = assay: Antibacterial activity against Clostridium difficile; type: functional
Trichomonas vaginalis [15] = assay: Antiparasitic activity against Trichomonas vaginalis BRIS/92/STDL/B7268 clinical isolate after 48 hrs under anaerobic condition; type: functional
Trichomonas vaginalis [16] = assay: Antiparasitic activity against Trichomonas vaginalis clinical isolate after 48 hrs under aerobic conditions by inverted phase contrast microscopic analysis; type: functional
Entamoeba histolytica = assay: Antiparasitic activity against Entamoeba histolytica clinical isolate after 24 hrs under anaerobic cinditions; type: functional
Giardia intestinalis [17] = assay: In vivo antiparasitic activity against Giardia lamblia infected in human at 2000 to 2400 mg administered as single dose; type: functional, Giardia duodenalis
Leishmania donovani [18] = assay: Antileishmanial activity against Leishmania donovani LV9 amastigotes infected in BALB/c mouse peritoneal macrophages after 72 hrs by resazurin-based fluorescence assay; type: functional; settings: LV9, 72 h
Leishmania donovani [19] = assay: Antileishmanial activity against Leishmania donovani LV9 promastigotes after 72 hrs by resazurin-based fluorescence assay; type: functional; settings: LV9, 72 h
[20] = tested on: Mycobacterium tuberculosis; assay: Antimycobacterial activity against Mycobacterium tuberculosis; type: functional
Helicobacter pylori [21] = assay: In vivo antibacterial activity against Helicobacter pylori infected in human administered bid for 7 days measured after 30 days post start of the treatment by endoscopic analysis; type: functional
[22] = Half life in plasma (unknown origin); type: ADME, cell-free

**Q.** Which inhibition in vivo at 200 mg/kg (Leishmania donovani [1]) does the source give for `CSc1ccc(OCc2ncc([N+](=O)[O-])n2C)cc1` [FEXINIDAZOLE] here?
**A.** 98%

**Q.** Which ED90 (Leishmania donovani [2]) does the source give for `C[C@]1(COc2ccc(OC(F)(F)F)cc2)Cn2cc([N+](=O)[O-])nc2O1` here?
**A.** 3.7 mg/kg

**Q.** What does the source list for `C[C@]1(COc2ccc(N3CCC(Oc4ccc(OC(F)(F)F)cc4)CC3)cc2)Cn2cc([N+](=O)[O-])nc2O1` [DELAMANID]?
**A.** ED50 (Leishmania donovani [3]): 7.3 mg/kg; ED90 (Leishmania donovani [3]): 21.5 mg/kg; EC50 (Leishmania donovani [4]): 87 nM

**Q.** Which EC50 (Leishmania donovani [4]) does the source give for `CCCCCCCCCCCCCCCCOP(=O)([O-])OCC[N+](C)(C)C` [MILTEFOSINE] here?
**A.** 3300 nM

**Q.** What does the source list for `Cc1ncc([N+](=O)[O-])n1CC(C)O` (centres undefined) [SECNIDAZOLE]?
**A.** MIC (Bacteroides fragilis): 0.8 to 3.7 µM (≈ 0.148 to 0.685 µg/mL); Efficacy (Giardia intestinalis [5]): 80 - 100%; Efficacy (Giardia intestinalis [6]): 80 - 100%

**Q.** With `O=C(Cn1ccnc1[N+](=O)[O-])NCc1ccccc1` [BENZNIDAZOLE] as the molecule, how does the Activity (Trypanosoma cruzi [7]) read?
**A.** 76%

**Q.** And the Activity (Trypanosoma cruzi [8])?
**A.** 8%

**Q.** With `Cc1ncc([N+](=O)[O-])n1CC(O)CCl` (centres undefined) [ORNIDAZOLE] as the molecule, how does the MIC (Bacteroides fragilis) read?
**A.** 0.8 to 3.7 µM (≈ 0.176 to 0.813 µg/mL)

**Q.** And the Efficacy (Giardia intestinalis [5])?
**A.** 92 - 100%

**Q.** What does the source list for `Cc1ncc([N+](=O)[O-])n1CCO` [METRONIDAZOLE]?
**A.** MIC (Helicobacter pylori [9]): ≥ 256 µg/mL; Efficacy (Giardia intestinalis [10]): 88%; Drug excretion [11]: 1.2 µg/g; MIC (Helicobacter pylori [12]): 0.25 to 2 µg/mL (≈ 1.46 to 11.7 µM); MIC (Helicobacter pylori [13]): > 8 µg/mL; Drug excretion [14]: 9.3 µg/g; MIC90 (Clostridioides difficile): 0.2 to 2 µg/mL (≈ 1.17 to 11.7 µM); MLC (Trichomonas vaginalis [15]): 4.25 µg/mL (≈ 24.8 µM); MLC (Trichomonas vaginalis [16]): 2618 µM (≈ 448 µg/mL); MIC (Entamoeba histolytica): 12.5 to 25 µM (≈ 2.14 to 4.28 µg/mL); Efficacy (Giardia intestinalis [17]): 48%

**Q.** For `O=[N+]([O-])c1cn2c(n1)OC[C@H](OCc1ccc(OC(F)(F)F)cc1)C2`, which EC50 (Leishmania donovani [18]) is on record?
**A.** 930 nM

**Q.** And the EC50 (Leishmania donovani [19])?
**A.** 160 nM

**Q.** What about the MIC [20] of the same molecule?
**A.** > 100 µM

**Q.** For `Cc1ncc([N+](=O)[O-])n1CCc1ccncc1` [PANIDAZOLE], which MIC (Bacteroides fragilis) is on record?
**A.** 0.8 to 3.7 µM (≈ 0.186 to 0.859 µg/mL)

**Q.** Which EC50 (Leishmania donovani [4]) does the source give for `Cn1c([N+](=O)[O-])cnc1COc1ccc(S(C)(=O)=O)cc1` [FEXINIDAZOLE SULFONE] here?
**A.** 5300 nM

**Q.** For `CCS(=O)(=O)CCn1c([N+](=O)[O-])cnc1C` [TINIDAZOLE], which MIC (Bacteroides fragilis) is on record?
**A.** 0.8 to 3.7 µM (≈ 0.198 to 0.915 µg/mL)

**Q.** What about the Activity (Helicobacter pylori [21]) of the same molecule?
**A.** >90%

**Q.** And the Efficacy (Giardia intestinalis [5])?
**A.** 92%

**Q.** And the half-life [22]?
**A.** 12 to 14 h

**Q.** What about the MLC (Trichomonas vaginalis [16]) of the same molecule?
**A.** 1015 µM (≈ 251 µg/mL)
